Data taken from ChEMBL document CHEMBL4421728, “Bach1 Inhibitors in Combination with Nrf2 Activators and Pharmaceutical Compositions Thereof” (2017).

Legend:
[1] = molecular target: T1, Transcription regulator protein BACH1 (Homo sapiens) (UniProt O14867); assay: Inhibition of Bach1 in normal human lung fibroblasts assessed as induction of HMOX protein expression by measuring HMOX positive cells level at 0.039 uM incubated for 16 to 18 hrs by immunostaining relative to control DMSO; set-up: scale not given: the % may be the effect or the level left
T1 sequence (whole entry): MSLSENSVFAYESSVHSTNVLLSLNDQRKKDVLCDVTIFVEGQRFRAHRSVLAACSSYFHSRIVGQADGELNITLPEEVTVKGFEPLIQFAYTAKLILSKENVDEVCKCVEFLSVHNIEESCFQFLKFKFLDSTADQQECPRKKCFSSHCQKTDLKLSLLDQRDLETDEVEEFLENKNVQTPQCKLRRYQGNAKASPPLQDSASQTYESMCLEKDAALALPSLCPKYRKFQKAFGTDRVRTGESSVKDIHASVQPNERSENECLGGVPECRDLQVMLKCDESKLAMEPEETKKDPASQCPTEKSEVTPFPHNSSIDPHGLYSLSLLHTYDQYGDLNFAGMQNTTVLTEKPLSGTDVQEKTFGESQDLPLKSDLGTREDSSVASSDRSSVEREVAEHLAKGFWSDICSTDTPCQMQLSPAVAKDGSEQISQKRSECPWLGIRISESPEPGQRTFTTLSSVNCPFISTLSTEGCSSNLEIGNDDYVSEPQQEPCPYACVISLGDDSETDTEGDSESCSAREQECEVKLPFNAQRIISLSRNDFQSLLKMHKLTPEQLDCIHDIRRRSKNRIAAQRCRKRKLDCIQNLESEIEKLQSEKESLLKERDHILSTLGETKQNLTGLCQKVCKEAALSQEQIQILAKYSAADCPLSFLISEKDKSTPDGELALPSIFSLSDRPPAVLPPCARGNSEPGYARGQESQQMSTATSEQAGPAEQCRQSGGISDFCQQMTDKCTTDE

[2] = molecular target: T1, Transcription regulator protein BACH1 (Homo sapiens); assay: Inhibition of Bach1 in normal human lung fibroblasts assessed as induction of HMOX protein expression at 0.039 uM in presence of 1 uM Nrf2 activator DMF incubated for 16 to 18 hrs by immunostaining relative to control
[3] = molecular target: T1, Transcription regulator protein BACH1 (Homo sapiens); assay: Inhibition of Bach1 in normal human lung fibroblasts assessed as induction of HMOX protein expression by measuring HMOX positive cells level at 0.039 uM in presence of 3 uM Nrf2 activator DMF incubated for 16 to 18 hrs by immunostaining relative to control DMSO; set-up: scale not given: the % may be the effect or the level left
[4] = molecular target: T1, Transcription regulator protein BACH1 (Homo sapiens); assay: Inhibition of Bach1 in normal human lung fibroblasts assessed as induction of HMOX protein expression by measuring HMOX positive cells level at 0.019 uM in presence of 0.03 uM Nrf2 activator DMF incubated for 16 to 18 hrs by immunostaining relative to control DMSO; set-up: scale not given: the % may be the effect or the level left
[5] = molecular target: T1, Transcription regulator protein BACH1 (Homo sapiens); assay: Inhibition of Bach1 in normal human lung fibroblasts assessed as induction of HMOX protein expression at 0.156 uM in presence of 30 uM Nrf2 activator DMF incubated for 16 to 18 hrs by immunostaining relative to control
[6] = molecular target: T1, Transcription regulator protein BACH1 (Homo sapiens); assay: Inhibition of Bach1 in normal human lung fibroblasts assessed as induction of HMOX protein expression by measuring HMOX positive cells level at 0.078 uM in presence of 0.1 uM Nrf2 activator DMF incubated for 16 to 18 hrs by immunostaining relative to control DMSO; set-up: scale not given: the % may be the effect or the level left
[7] = molecular target: T1, Transcription regulator protein BACH1 (Homo sapiens); assay: Inhibition of Bach1 in normal human lung fibroblasts assessed as induction of HMOX protein expression by measuring HMOX positive cells level at 0.039 uM in presence of 1 uM Nrf2 activator DMF incubated for 16 to 18 hrs by immunostaining relative to control DMSO; set-up: scale not given: the % may be the effect or the level left
[8] = molecular target: T1, Transcription regulator protein BACH1 (Homo sapiens); assay: Inhibition of Bach1 in normal human lung fibroblasts assessed as induction of HMOX protein expression at 0.078 uM in presence of 0.1 uM Nrf2 activator DMF incubated for 16 to 18 hrs by immunostaining relative to control
[9] = molecular target: T1, Transcription regulator protein BACH1 (Homo sapiens); assay: Inhibition of Bach1 in normal human lung fibroblasts assessed as induction of HMOX protein expression at 0.078 uM in presence of 10 uM Nrf2 activator DMF incubated for 16 to 18 hrs by immunostaining relative to control
[10] = molecular target: T1, Transcription regulator protein BACH1 (Homo sapiens); assay: Inhibition of Bach1 in normal human lung fibroblasts assessed as induction of HMOX protein expression at 0.039 uM in presence of 30 uM Nrf2 activator DMF incubated for 16 to 18 hrs by immunostaining relative to control
[11] = molecular target: T1, Transcription regulator protein BACH1 (Homo sapiens); assay: Inhibition of Bach1 in normal human lung fibroblasts assessed as induction of HMOX protein expression by measuring HMOX positive cells level at 0.156 uM in presence of 30 uM Nrf2 activator DMF incubated for 16 to 18 hrs by immunostaining relative to control DMSO; set-up: scale not given: the % may be the effect or the level left
[12] = molecular target: T1, Transcription regulator protein BACH1 (Homo sapiens); assay: Inhibition of Bach1 in normal human lung fibroblasts assessed as induction of HMOX protein expression at 0.156 uM in presence of 10 uM Nrf2 activator DMF incubated for 16 to 18 hrs by immunostaining relative to control
[13] = molecular target: T1, Transcription regulator protein BACH1 (Homo sapiens); assay: Inhibition of Bach1 in normal human lung fibroblasts assessed as induction of HMOX protein expression at 0.019 uM in presence of 30 uM Nrf2 activator DMF incubated for 16 to 18 hrs by immunostaining relative to control
[14] = molecular target: T1, Transcription regulator protein BACH1 (Homo sapiens); assay: Inhibition of Bach1 in normal human lung fibroblasts assessed as induction of HMOX protein expression at 0.019 uM in presence of 1 uM Nrf2 activator DMF incubated for 16 to 18 hrs by immunostaining relative to control
[15] = molecular target: T1, Transcription regulator protein BACH1 (Homo sapiens); assay: Inhibition of Bach1 in normal human lung fibroblasts assessed as induction of HMOX protein expression by measuring HMOX positive cells level at 0.156 uM in presence of 1 uM Nrf2 activator DMF incubated for 16 to 18 hrs by immunostaining relative to control DMSO; set-up: scale not given: the % may be the effect or the level left
[16] = molecular target: T1, Transcription regulator protein BACH1 (Homo sapiens); assay: Inhibition of Bach1 in normal human lung fibroblasts assessed as induction of HMOX protein expression by measuring HMOX positive cells level at 0.019 uM in presence of 0.1 uM Nrf2 activator DMF incubated for 16 to 18 hrs by immunostaining relative to control DMSO; set-up: scale not given: the % may be the effect or the level left
[17] = molecular target: T1, Transcription regulator protein BACH1 (Homo sapiens); assay: Inhibition of Bach1 in normal human lung fibroblasts assessed as induction of HMOX protein expression at 0.156 uM in presence of 1 uM Nrf2 activator DMF incubated for 16 to 18 hrs by immunostaining relative to control
[18] = molecular target: T1, Transcription regulator protein BACH1 (Homo sapiens); assay: Inhibition of Bach1 in normal human lung fibroblasts assessed as induction of HMOX protein expression by measuring HMOX positive cells level at 0.156 uM in presence of 0.3 uM Nrf2 activator DMF incubated for 16 to 18 hrs by immunostaining relative to control DMSO; set-up: scale not given: the % may be the effect or the level left
[19] = molecular target: T1, Transcription regulator protein BACH1 (Homo sapiens); assay: Inhibition of Bach1 in normal human lung fibroblasts assessed as induction of HMOX protein expression at 0.078 uM in presence of 0.3 uM Nrf2 activator DMF incubated for 16 to 18 hrs by immunostaining relative to control
[20] = molecular target: T1, Transcription regulator protein BACH1 (Homo sapiens); assay: Inhibition of Bach1 in normal human lung fibroblasts assessed as induction of HMOX protein expression at 0.156 uM in presence of 0.3 uM Nrf2 activator DMF incubated for 16 to 18 hrs by immunostaining relative to control

Row | Activity [1] | fold change (FC) [2] | Activity [3] | Activity [4] | fold change (FC) [5] | Activity [6] | Activity [7] | fold change (FC) [8] | fold change (FC) [9] | fold change (FC) [10] | Activity [11] | fold change (FC) [12] | fold change (FC) [13] | fold change (FC) [14] | Activity [15] | Activity [16] | fold change (FC) [17] | Activity [18] | fold change (FC) [19] | fold change (FC) [20] | Structure (SMILES)
1 | 2.31% | 2.1 | 68% | 1.18% | 5.49 | 8.24% | 23.5% | 1.48 | 6.46 | 4.9 | 84% | 6.55 | 4.65 | 1.68 | 66.7% | 2.37% | 4.08 | 50% | 1.73 | 3.06 | CN(C)C(=O)CNC(=O)c1ccc2c(c1)nc(Nc1nc3ccc(C(F)(F)F)cc3s1)n2C
2 | 28% | 2.6 | 78.7% | 4.94% | 6.18 | 44.6% | 38.7% | 2.87 | 6.52 | 5.52 | 92.2% | 7.5 | 4.9 | 2.17 | 97.7% | 4.52% | 6.04 | 94.5% | 3.21 | 5.17 | Cn1c(Nc2nc3ccc(C(F)(F)F)cc3s2)nc2cc(C(=O)NCCOCCO)ccc21
3 | 5.3% | 1.97 | 75.8% | 1.8% | 4.99 | 7.05% | 23.1% | 1.21 | 5.06 | 4.82 | 98.2% | 5.58 | 4.23 | 1.57 | 57.7% | 2.55% | 2.87 | 30.1% | 1.43 | 2.06 | COCCNC(=O)c1cnc2c(c1)nc(Nc1nc3ccc(OC(F)(F)F)cc3s1)n2C
